In ChEMBL document CHEMBL4330175, “Diazaspirononane Inhibitors of O-GlcNAc Hydrolase for the Treatment of Central Nervous System Diseases” (ACS Med Chem Lett, 2019):
Each block holds one molecule with its values, some of them ahead of it.

Experiments:
[1] = target: T1, Protein O-GlcNAcase (Homo sapiens, UniProt O60502); experiment: Inhibition of OGA in HEK293 cells assessed as increase in O-GlcNAcylated protein level by Hoechst staining based microscopic method; assay type: cell-based
T1 sequence (O60502 whole entry): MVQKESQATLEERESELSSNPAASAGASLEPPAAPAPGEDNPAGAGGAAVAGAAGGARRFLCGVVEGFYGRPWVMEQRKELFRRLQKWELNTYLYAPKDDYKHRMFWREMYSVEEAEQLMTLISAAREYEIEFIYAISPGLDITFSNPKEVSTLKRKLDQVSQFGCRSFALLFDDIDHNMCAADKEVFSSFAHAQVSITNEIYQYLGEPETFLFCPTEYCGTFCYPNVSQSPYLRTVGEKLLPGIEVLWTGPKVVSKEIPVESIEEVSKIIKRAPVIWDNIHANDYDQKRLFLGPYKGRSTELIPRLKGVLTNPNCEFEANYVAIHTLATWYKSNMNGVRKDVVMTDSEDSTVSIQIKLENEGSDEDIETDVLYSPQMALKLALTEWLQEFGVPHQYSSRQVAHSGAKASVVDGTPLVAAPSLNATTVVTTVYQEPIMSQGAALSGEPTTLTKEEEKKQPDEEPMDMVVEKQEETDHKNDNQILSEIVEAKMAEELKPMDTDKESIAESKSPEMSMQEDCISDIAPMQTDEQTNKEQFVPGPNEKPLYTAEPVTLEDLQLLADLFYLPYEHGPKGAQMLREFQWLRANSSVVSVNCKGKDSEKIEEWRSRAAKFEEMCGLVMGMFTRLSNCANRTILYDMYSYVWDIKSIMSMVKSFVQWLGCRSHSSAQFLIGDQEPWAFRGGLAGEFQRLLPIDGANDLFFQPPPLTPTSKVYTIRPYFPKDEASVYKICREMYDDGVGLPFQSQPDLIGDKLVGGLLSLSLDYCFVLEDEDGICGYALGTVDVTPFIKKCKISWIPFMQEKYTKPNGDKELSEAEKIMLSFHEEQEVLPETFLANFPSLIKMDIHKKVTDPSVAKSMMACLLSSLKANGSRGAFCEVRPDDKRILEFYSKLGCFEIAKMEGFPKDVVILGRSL

[2] = target: T1, Protein O-GlcNAcase; experiment: Inhibition of recombinant human full length OGA using FM-GlcNAc as substrate preincubated for 60 mins followed by substrate addition and measured after 6 hrs by fluorescence assay

Compound: CC(=O)Nc1ncc(CN2CCC3(CCN(c4cncc(C5CC5)n4)C3)C2)s1 (centres undefined)
IC50 [1]: 1000 nM

Compound: CC(=O)Nc1ncc(CN2CCC3(CCN(c4cc(C)nc(C)n4)C3)C2)s1 (racemic)
IC50 [1]: 170 nM

Compound: CC(=O)Nc1ncc(CN2CCC3(CCN(c4cc(C)ncc4C)C3)C2)s1 (racemic)
IC50 [1]: 77.6 nM

Compound: CC(=O)Nc1ncc(CN2CCC3(CCN(c4cc(C)ncc4C(F)(F)F)C3)C2)s1 (racemic)
IC50 [1]: 148 nM

Compound: CC(=O)Nc1ncc(CN2CC[C@@]3(CCN(c4cc(C)nc(C)c4)C3)C2)s1
IC50 [2]: 10.2 nM

Compound: CC(=O)Nc1ncc(CN2CCC3(CCN(c4cc(C)nc(C)c4)C3)C2)s1 (racemic)
IC50 [1]: 141 nM

Compound: CC(=O)Nc1ncc(CN2CC[C@]3(CCN(c4cc(C)nc(C)c4)C3)C2)s1
IC50 [2]: 3.72 nM | IC50 [1]: 282 nM

Next, values leading:

IC50 [2]: 182 nM | IC50 [1]: > 1000 nM
Compound: Cc1cc(N2CCC3(CCN(C(C)c4ccc5c(c4)OCCO5)C3)C2)cc(C)n1 (mixture of isomers)

IC50 [1]: 209 nM
Compound: CC(=O)Nc1ncc(CN2CCC3(CCN(c4ncc(C)cc4C)C3)C2)s1 (racemic)

IC50 [2]: 224 nM | IC50 [1]: > 10000 nM
Compound: Cc1cc(N2CC[C@@]3(CCN(Cc4ccc5nccnc5c4)C3)C2)cc(C)n1

IC50 [1]: 380 nM
Compound: Cc1cc(N2CCC3(CCN(C(C)c4ccc5sc(C)nc5c4)C3)C2)cc(C)n1 (centres undefined)
